Test results reported in patent publication US12458021B2, “Microbiocidal derivatives” (SYNGENTA CROP PROTECTION AG, priority 2019, dated 2025).

Columns and labels:
Type in all cases: cell-based
[1] = tested on: Monographella nivalis (Microdochium nivale); assay: Monographella nivalis (Microdochium nivale) / liquid culture (foot rot cereals); conditions: PDB potato dextrose broth, 24° C., 4-5 days after application, read-out: control of Monographella nivalis (inhibition of growth, photometric)
Protocol: Example B7: Monographella nivalis (Microdochium nivale)/Liquid Culture (Foot Rot Cereals) Conidia of the fungus from cryogenic storage are directly mixed into nutrient broth (PDB potato dextrose broth). After placing a (DMSO) solution of test compound into a microtiter plate (96-well format), the nutrient broth containing the fungal spores is added. The test plates are incubated at 24° C. and the inhibition of growth is determined photometrically 4-5 days after application. […] […]-190.

[2] = tested on: Glomerella lagenarium (Colletotrichum lagenarium); assay: Glomerella lagenarium (Colletotrichum lagenarium) / liquid culture (anthracnose); conditions: Colletotrichum orbiculare, PDB potato dextrose broth, 24° C., 3-4 days after application, read-out: control of Glomerella lagenarium (inhibition of growth, photometric)
Protocol: Example B3: Glomerella lagenarium (Colletotrichum lagenarium)/Liquid Culture (Anthracnose) Conidia of the fungus from cryogenic storage are directly mixed into nutrient broth (PDB potato dextrose broth). After placing a (DMSO) solution of test compound into a microtiter plate (96-well format), the nutrient broth containing the fungal spores is added. The test plates are incubated at 24° C. and the inhibition of growth is measured photometrically 3-4 days after application. […] […]-191.

[3] = tested on: Mycosphaerella graminicola (Septoria tritici); assay: Mycosphaerella graminicola (Septoria tritici) / liquid culture (Septoria blotch); conditions: Zymoseptoria tritici, PDB potato dextrose broth, 24° C., 4-5 days after application, read-out: control of Mycosphaerella graminicola (inhibition of growth, photometric)
Protocol: Example B15: Mycosphaerella graminicola (Septoria tritici)/Liquid Culture (Septoria Blotch) Conidia of the fungus from cryogenic storage are directly mixed into nutrient broth (PDB potato dextrose broth). After placing a (DMSO) solution of test compound into a microtiter plate (96-well format), the nutrient broth containing the fungal spores is added. The test plates are incubated at 24° C. and the inhibition of growth is determined photometrically 4-5 days after application. […] […]-191.

| Structure (SMILES) | inhibition at 20 ppm [1] [%] | inhibition at 20 ppm [2] [%] | inhibition at 20 ppm [3] [%] |
| --- | --- | --- | --- |
| COc1ccc(Nc2nccs2)nc1C(=O)NC1CCC1(C)C (stereo not drawn) [Compound P-5, N-(2,2-dimethylcyclobutyl)-3-methoxy-6-(thiazol-2-ylamino)pyridine-2-carboxamide] | ≥ 80 | – | – |
| CC1(C)CCC1NC(=O)c1nc(Nc2cncc(F)c2)ccc1O (stereo not drawn) [Compound P-12, N-(2,2-dimethylcyclobutyl)-6-[(5-fluoro-3-pyridyl)amino]-3-hydroxy-pyridine-2-carboxamide] | ≥ 80 | – | – |
| CC1(C)CCC1NC(=O)c1nc(Nc2ccc(F)nc2)ccc1O (stereo not drawn) [Compound P-13, N-(2,2-dimethylcyclobutyl)-6-[(6-fluoro-3-pyridyl)amino]-3-hydroxy-pyridine-2-carboxamide] | ≥ 80 | ≥ 80 | – |
| CC1(C)CCC1NC(=O)c1nc(Nc2ccnc(Cl)c2)ccc1O (stereo not drawn) [Compound P-14, 6-[(2-chloro-4-pyridyl)amino]-N-(2,2-dimethylcyclobutyl)-3-hydroxy-pyridine-2-carboxamide] | ≥ 80 | ≥ 80 | – |
| CC1(C)CCC1NC(=O)c1nc(Nc2cncnc2)ccc1O (stereo not drawn) [Compound P-15, N-(2,2-dimethylcyclobutyl)-3-hydroxy-6-(pyrimidin-5-ylamino)pyridine-2-carboxamide] | ≥ 80 | – | – |
| CC1(C)CCC1NC(=O)c1nc(Nc2ccc3c(c2)OCO3)ccc1O (stereo not drawn) [Compound P-17, 6-(1,3-benzodioxo1-5-ylamino)-N-(2,2-dimethylcyclobutyl)-3-hydroxy-pyridine-2-carboxamide] | ≥ 80 | – | – |
| COCC(=O)Oc1ccc(N(C(=O)COC)c2cc(F)cc(F)c2)nc1C(=O)NC1CCC1(C)C (stereo not drawn) [Compound P-24, [6-(3,5-difluoro-N-(2-methoxyacetyl)anilino)-2-[(2,2-dimethylcyclobutyl)carbamoyl]-3-pyridyl] 2-methoxyacetate] | – | ≥ 80 | – |
| COc1ccc(Nc2cc(F)cc(F)c2)nc1C(=O)NCC#CC(C)(C)C [Compound P-28, 6-(3,5-difluoroanilino)-N-(4,4-dimethylpent-2-ynyl)-3-methoxy-pyridine-2-carboxamide] | – | – | ≥ 80 |
| COc1ccc(Nc2cnsc2)nc1C(=O)NCC#CC(C)(C)C [Compound P-34, N-(4,4-dimethylpent-2-ynyl)-6-(isothiazol-4-ylamino)-3-methoxy-pyridine-2-carboxamide] | – | – | ≥ 80 |
| COc1ccc(NC2CCC2)nc1C(=O)NCC(C)(C)C [Compound P-41, 6-(cyclobutylamino)-N-(2,2-dimethylpropyl)-3-methoxy-pyridine-2-carboxamide] | – | – | ≥ 80 |
| COc1ccc(Nc2cc(F)cc(F)c2)nc1C(=O)NCc1cccc2c1OC(F)(F)O2 [Compound P-58, 6-(3,5-difluoroanilino)-N-[(2,2-difluoro-1,3-benzodioxol-4-yl)methyl]-3-methoxy-pyridine-2-carboxamide] | – | ≥ 80 | ≥ 80 |
| COc1ccc(Nc2cc(F)cc(F)c2)nc1C(=O)NCC1(c2ccc(C(F)(F)F)cn2)CC1 [Compound P-72, 6-(3,5-difluoroanilino)-3-methoxy-N-[[1-[5-(trifluoromethyl)-2-pyridyl]cyclopropyl]methyl]pyridine-2-carboxamide] | – | ≥ 80 | – |
| COc1ccc(Nc2cc(F)cc(F)c2)nc1C(=O)NC1CCN(S(=O)(=O)C(C)C)CC1 [Compound P-77, 6-(3,5-difluoroanilino)-N-(1-isopropylsulfonyl-4-piperidyl)-3-methoxy-pyridine-2-carboxamide] | – | ≥ 80 | – |
| COc1ccc(Nc2cnsc2)nc1C(=O)NCc1ccc(Oc2ccccc2)cc1 [Compound P-81, 6-(isothiazol-4-ylamino)-3-methoxy-N-[(4-phenoxyphenyl)methyl]pyridine-2-carboxamide] | ≥ 80 | ≥ 80 | – |
| COc1ccc(Nc2cnsc2)nc1C(=O)NCc1cccc2c1OC(F)(F)O2 [Compound P-82, N-[(2,2-difluoro-1,3-benzodioxol-4-yl)methyl]-6-(isothiazol-4-ylamino)-3-methoxy-pyridine-2-carboxamide] | ≥ 80 | ≥ 80 | – |
| COc1ccc(Nc2cnsc2)nc1C(=O)NCC1(C)CCOC2(CCC2)C1 (stereo not drawn) [Compound P-84, 6-(isothiazol-4-ylamino)-3-methoxy-N-[(8-methyl-5-oxaspiro[3.5]nonan-8-yl)methyl]pyridine-2-carboxamide] | – | ≥ 80 | – |
| COc1ccc(Nc2cnsc2)nc1C(=O)NCCc1ccc(OC(F)(F)F)cc1 [Compound P-85, 6-(isothiazol-4-ylamino)-3-methoxy-N-[2-[4-(trifluoromethoxy)phenyl]ethyl]pyridine-2-carboxamide] | – | ≥ 80 | – |

| Structure (SMILES) | inhibition at 20 ppm [1] [%] | inhibition at 20 ppm [2] [%] | inhibition at 20 ppm [3] [%] |
| --- | --- | --- | --- |
| CC(C)(C)CNC(=O)c1nc(Nc2cc(F)nc(F)c2)ccc1O [Compound P-100, 6-[(2,6-difluoro-4-pyridyl)amino]-N-(2,2-dimethylpropyl)-3-hydroxy-pyridine-2-carboxamide] | – | ≥ 80 | – |
| COc1cc(Nc2cc(F)cc(F)c2)nc(C(=O)NC2CCC2(C)C)c1 (stereo not drawn) [Compound P-101, 6-(3,5-difluoroanilino)-N-(2,2-dimethylcyclobutyl)-4-methoxy-pyridine-2-carboxamide] | – | ≥ 80 | – |
| CC(C)(C)CNC(=O)c1nc(Nc2cc(F)nc(F)c2I)ccc1O [Compound P-106, 6-[(2,6-difluoro-3-iodo-4-pyridyl)amino]-N-(2,2-dimethylpropyl)-3-hydroxy-pyridine-2-carboxamide] | ≥ 80 | – | – |
| COc1ccc(Nc2cc(F)cc(F)c2)nc1C(=O)NCc1cc(C(F)(F)F)cc(C(F)(F)F)c1 [Compound P-115, N-[[3,5-bis(trifluoromethyl)phenyl]methyl]-6-(3,5-difluoroanilino)-3-methoxy-pyridine-2-carboxamide] | – | – | ≥ 80 |
| COc1ccc(Nc2cc(Cl)cc(Cl)c2)nc1C(=O)NCC(C)(C)C [Compound P-130, 6-(3,5-dichloroanilino)-N-(2,2-dimethylpropyl)-3-methoxy-pyridine-2-carboxamide] | – | ≥ 80 | ≥ 80 |
| COc1ccc(Nc2ccc(Cl)c(Cl)c2)nc1C(=O)NCC(C)(C)C [Compound P-131, 6-(3,4-dichloroanilino)-N-(2,2-dimethylpropyl)-3-methoxy-pyridine-2-carboxamide] | ≥ 80 | ≥ 80 | – |
| COc1ccc(Nc2cc(F)c(Cl)c(F)c2)nc1C(=O)NCC(C)(C)C [Compound P-135, 6-(4-chloro-3,5-difluoro-anilino)-N-(2,2-dimethylpropyl)-3-methoxy-pyridine-2-carboxamide] | – | – | ≥ 80 |
| COc1ccc(Nc2ccc(Cl)c(C)c2)nc1C(=O)NCC(C)(C)C [Compound P-138, 6-(4-chloro-3-methyl-anilino)-N-(2,2-dimethylpropyl)-3-methoxy-pyridine-2-carboxamide] | ≥ 80 | ≥ 80 | – |
| COc1ccc(Nc2ccc(C)cc2)nc1C(=O)NCC(C)(C)C [Compound P-141, N-(2,2-dimethylpropyl)-3-methoxy-6-(4-methylanilino)pyridine-2-carboxamide] | – | ≥ 80 | – |
| COc1ccc(Nc2ccc(Cl)c(Cl)c2)nc1C(=O)NC(C)(C)C [Compound P-149, N-tert-butyl-6-(3,4-dichloroanilino)-3-methoxy-pyridine-2-carboxamide] | – | ≥ 80 | – |
| COc1ccc(Nc2ccc(C(F)(F)F)c(F)c2)nc1C(=O)NC(C)(C)C [Compound P-154, N-tert-butyl-6-[3-fluoro-4-(trifluoromethyl)anilino]-3-methoxy-pyridine-2-carboxamide] | – | ≥ 80 | – |
| COc1ccc(Nc2ccc(Cl)c(C)c2)nc1C(=O)NC(C)(C)C [Compound P-158, N-tert-butyl-6-(4-chloro-3-methyl-anilino)-3-methoxy-pyridine-2-carboxamide] | – | ≥ 80 | – |
| COc1ccc(Nc2ccc(C)cc2)nc1C(=O)NC(C)(C)C [Compound P-161, N-tert-butyl-3-methoxy-6-(4-methylanilino)pyridine-2-carboxamide] | – | ≥ 80 | – |
| COc1ccc(Nc2cncc(C(F)(F)F)c2)nc1C(=O)NC(C)(C)C [Compound P-163, N-tert-butyl-3-methoxy-6-[[5-(trifluoromethyl)-3-pyridyl]amino]pyridine-2-carboxamide] | – | ≥ 80 | – |
| COc1ccc(Nc2ccc3cnn(Cc4ccccc4)c3c2)nc1C(=O)NC(C)(C)C [Compound P-165, 6-[(1-benzylindazol-6-yl)amino]-N-tert-butyl-3-methoxy-pyridine-2-carboxamide] | – | ≥ 80 | – |
| COC(=O)N(c1cc(F)cc(F)c1)c1ccc(OC)c(C(=O)NC2CCC2(C)C)n1 (stereo not drawn) [Compound P-191, methyl N-(3,5-difluorophenyl)-N-[6-[(2,2-dimethylcyclobutyl)carbamoyl]-5-methoxy-2-pyridyl]carbamate] | – | ≥ 80 | ≥ 80 |
